Data on 16 compounds can be found in ChEMBL document CHEMBL3120096 (J Med Chem, 2014).

A short description of series [1]: Clearance in Sprague-Dawley rat at 1 mg/kg, po and 0.5 mg/kg, iv. As to conditions: in vivo; call rule not given here. The format is ADME, organism-based.
Series [2] is described as follows: Half life in Sprague-Dawley rat at 1 mg/kg, po and 0.5 mg/kg, iv. To be noted: in vivo. Type of series: ADME, organism-based.
In a further series the target is MDR1 (P-gp, ABCB1) (Homo sapiens, UniProt P08183). Description: Activity at human MDR1 transfected in MDCK cells assessed as efflux ratio of apparent permeability from basolateral to apical side over apical to basolateral side at 5 uM. Type of series: ADME, cell-based.
MDR1 (P-gp, ABCB1), sequence (P08183 whole entry): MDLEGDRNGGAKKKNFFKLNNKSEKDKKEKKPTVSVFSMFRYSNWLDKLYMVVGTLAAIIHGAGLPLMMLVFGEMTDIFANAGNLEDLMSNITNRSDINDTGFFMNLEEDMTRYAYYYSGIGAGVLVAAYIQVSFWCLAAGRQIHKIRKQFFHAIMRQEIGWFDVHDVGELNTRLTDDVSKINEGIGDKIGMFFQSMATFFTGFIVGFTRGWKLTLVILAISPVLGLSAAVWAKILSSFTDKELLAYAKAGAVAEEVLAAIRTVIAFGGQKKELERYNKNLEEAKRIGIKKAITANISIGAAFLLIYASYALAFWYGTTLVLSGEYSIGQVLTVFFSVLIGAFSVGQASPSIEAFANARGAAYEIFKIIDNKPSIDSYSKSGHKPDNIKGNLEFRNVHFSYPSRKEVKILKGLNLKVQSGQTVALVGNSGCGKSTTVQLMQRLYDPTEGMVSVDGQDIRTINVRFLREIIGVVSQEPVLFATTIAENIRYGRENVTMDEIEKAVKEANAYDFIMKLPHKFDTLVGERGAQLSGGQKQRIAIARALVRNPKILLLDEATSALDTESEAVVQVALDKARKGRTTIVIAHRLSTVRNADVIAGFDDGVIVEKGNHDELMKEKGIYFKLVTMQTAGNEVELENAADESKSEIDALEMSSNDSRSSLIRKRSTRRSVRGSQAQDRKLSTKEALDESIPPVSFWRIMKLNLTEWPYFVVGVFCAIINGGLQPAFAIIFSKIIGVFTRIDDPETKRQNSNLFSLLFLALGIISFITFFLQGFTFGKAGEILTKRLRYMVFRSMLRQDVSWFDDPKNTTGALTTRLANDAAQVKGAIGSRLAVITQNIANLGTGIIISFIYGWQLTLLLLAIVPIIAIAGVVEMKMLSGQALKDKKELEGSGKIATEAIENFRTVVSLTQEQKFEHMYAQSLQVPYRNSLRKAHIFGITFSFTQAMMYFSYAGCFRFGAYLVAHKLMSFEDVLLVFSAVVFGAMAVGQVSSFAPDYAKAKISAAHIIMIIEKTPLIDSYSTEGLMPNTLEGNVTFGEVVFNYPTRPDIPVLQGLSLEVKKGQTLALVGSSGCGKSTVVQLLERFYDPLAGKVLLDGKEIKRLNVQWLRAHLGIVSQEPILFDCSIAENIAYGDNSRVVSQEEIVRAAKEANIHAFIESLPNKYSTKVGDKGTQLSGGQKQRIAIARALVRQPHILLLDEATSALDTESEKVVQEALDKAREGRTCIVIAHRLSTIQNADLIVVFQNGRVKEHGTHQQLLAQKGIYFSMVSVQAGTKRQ
Series [3] is described as follows: Volume of distribution in Sprague-Dawley rat at 1 mg/kg, po and 0.5 mg/kg, iv. Type of series: ADME, organism-based. To be noted: in vivo.
Series [4] can be described thus: Reversible inhibition of CYP in human liver microsomes by mass spectrophotometric analysis. The format is ADME. On the technique in general: Microsomes from liver hold many membrane-bound enzymes, among them those of drug oxidation.
Series [5] in a line: Time dependent inhibition of CYP in human liver microsomes by HPLC-MS analysis. The format is ADME.
The species named for a further series is Homo sapiens. Put plainly: Selectivity ratio of Ki for JAK2 (unknown origin) to Ki for LRRK2 (unknown origin).
Series [6] addresses T1, Leucine-rich repeat serine/threonine-protein kinase 2 (Homo sapiens, UniProt Q5S007). Put plainly: Inhibition of LRRK2 (unknown origin) phosphorylation by cell-based assay.
Another series concerns Rattus norvegicus. Description: Unbound clearance in Sprague-Dawley rat at 1 mg/kg, po and 0.5 mg/kg, iv. As to conditions: in vivo. Type of series: ADME, organism-based.
Series [7] is described as follows: Ratio of unbound drug level in brain to plasma in Sprague-Dawley rat. The format is ADME, organism-based.
Series [8] is described as follows: Clearance in human hepatocytes at 1 uM by LC-MS/MS analysis. The format is ADME, cell-based, Hepatocyte.
Series [9] has as its target T1, Leucine-rich repeat serine/threonine-protein kinase 2. Put plainly: Inhibition of LRRK2 (unknown origin).
Series [10] in a line: Clearance in rat hepatocytes at 1 uM by LC-MS/MS analysis. The format is ADME, cell-based, Hepatocyte.
A short description of series [11]: Half life in Sprague-Dawley rat at 0.5 mg/kg, iv. Type of series: ADME, organism-based. Also noted: dose 0.5 mg/kg, route intravenous. To be noted: in vivo.
Series [12] in a line: Volume of distribution in Sprague-Dawley rat at 0.5 mg/kg, iv. The format is ADME, organism-based. Also noted: dose 0.5 mg/kg, route intravenous. As to conditions: in vivo.
Series [13] can be described thus: Thermodynamic solubility of the crystalline form of compound at pH 7.4. The format is physicochemical. As to conditions: read-out: Therm_solubility.
The target in a further series is T2, BCRP (ABCG2) (Homo sapiens, UniProt Q9UNQ0).
T2 sequence (Q9UNQ0 whole entry): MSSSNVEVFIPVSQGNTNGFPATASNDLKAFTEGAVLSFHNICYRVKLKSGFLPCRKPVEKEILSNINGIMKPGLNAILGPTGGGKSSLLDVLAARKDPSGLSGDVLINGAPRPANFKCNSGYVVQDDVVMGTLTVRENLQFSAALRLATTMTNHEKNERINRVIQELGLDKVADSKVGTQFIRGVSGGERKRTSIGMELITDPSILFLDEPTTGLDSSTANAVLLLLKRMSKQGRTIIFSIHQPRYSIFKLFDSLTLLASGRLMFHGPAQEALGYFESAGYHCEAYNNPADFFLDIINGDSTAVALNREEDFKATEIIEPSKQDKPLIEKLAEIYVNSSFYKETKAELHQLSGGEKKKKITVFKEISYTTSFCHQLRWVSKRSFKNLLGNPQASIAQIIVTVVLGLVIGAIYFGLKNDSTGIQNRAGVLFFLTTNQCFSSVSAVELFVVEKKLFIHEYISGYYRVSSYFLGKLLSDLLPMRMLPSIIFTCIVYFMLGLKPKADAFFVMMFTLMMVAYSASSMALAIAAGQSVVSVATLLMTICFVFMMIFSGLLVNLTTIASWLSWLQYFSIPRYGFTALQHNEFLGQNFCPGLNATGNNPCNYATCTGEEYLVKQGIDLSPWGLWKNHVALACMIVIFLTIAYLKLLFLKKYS
Put plainly: Activity at BCRP transporter (unknown origin) transfected in MDCK cells assessed as efflux ratio of permeability. Type of series: ADME, cell-based.

T1 sequence (Q5S007 whole entry): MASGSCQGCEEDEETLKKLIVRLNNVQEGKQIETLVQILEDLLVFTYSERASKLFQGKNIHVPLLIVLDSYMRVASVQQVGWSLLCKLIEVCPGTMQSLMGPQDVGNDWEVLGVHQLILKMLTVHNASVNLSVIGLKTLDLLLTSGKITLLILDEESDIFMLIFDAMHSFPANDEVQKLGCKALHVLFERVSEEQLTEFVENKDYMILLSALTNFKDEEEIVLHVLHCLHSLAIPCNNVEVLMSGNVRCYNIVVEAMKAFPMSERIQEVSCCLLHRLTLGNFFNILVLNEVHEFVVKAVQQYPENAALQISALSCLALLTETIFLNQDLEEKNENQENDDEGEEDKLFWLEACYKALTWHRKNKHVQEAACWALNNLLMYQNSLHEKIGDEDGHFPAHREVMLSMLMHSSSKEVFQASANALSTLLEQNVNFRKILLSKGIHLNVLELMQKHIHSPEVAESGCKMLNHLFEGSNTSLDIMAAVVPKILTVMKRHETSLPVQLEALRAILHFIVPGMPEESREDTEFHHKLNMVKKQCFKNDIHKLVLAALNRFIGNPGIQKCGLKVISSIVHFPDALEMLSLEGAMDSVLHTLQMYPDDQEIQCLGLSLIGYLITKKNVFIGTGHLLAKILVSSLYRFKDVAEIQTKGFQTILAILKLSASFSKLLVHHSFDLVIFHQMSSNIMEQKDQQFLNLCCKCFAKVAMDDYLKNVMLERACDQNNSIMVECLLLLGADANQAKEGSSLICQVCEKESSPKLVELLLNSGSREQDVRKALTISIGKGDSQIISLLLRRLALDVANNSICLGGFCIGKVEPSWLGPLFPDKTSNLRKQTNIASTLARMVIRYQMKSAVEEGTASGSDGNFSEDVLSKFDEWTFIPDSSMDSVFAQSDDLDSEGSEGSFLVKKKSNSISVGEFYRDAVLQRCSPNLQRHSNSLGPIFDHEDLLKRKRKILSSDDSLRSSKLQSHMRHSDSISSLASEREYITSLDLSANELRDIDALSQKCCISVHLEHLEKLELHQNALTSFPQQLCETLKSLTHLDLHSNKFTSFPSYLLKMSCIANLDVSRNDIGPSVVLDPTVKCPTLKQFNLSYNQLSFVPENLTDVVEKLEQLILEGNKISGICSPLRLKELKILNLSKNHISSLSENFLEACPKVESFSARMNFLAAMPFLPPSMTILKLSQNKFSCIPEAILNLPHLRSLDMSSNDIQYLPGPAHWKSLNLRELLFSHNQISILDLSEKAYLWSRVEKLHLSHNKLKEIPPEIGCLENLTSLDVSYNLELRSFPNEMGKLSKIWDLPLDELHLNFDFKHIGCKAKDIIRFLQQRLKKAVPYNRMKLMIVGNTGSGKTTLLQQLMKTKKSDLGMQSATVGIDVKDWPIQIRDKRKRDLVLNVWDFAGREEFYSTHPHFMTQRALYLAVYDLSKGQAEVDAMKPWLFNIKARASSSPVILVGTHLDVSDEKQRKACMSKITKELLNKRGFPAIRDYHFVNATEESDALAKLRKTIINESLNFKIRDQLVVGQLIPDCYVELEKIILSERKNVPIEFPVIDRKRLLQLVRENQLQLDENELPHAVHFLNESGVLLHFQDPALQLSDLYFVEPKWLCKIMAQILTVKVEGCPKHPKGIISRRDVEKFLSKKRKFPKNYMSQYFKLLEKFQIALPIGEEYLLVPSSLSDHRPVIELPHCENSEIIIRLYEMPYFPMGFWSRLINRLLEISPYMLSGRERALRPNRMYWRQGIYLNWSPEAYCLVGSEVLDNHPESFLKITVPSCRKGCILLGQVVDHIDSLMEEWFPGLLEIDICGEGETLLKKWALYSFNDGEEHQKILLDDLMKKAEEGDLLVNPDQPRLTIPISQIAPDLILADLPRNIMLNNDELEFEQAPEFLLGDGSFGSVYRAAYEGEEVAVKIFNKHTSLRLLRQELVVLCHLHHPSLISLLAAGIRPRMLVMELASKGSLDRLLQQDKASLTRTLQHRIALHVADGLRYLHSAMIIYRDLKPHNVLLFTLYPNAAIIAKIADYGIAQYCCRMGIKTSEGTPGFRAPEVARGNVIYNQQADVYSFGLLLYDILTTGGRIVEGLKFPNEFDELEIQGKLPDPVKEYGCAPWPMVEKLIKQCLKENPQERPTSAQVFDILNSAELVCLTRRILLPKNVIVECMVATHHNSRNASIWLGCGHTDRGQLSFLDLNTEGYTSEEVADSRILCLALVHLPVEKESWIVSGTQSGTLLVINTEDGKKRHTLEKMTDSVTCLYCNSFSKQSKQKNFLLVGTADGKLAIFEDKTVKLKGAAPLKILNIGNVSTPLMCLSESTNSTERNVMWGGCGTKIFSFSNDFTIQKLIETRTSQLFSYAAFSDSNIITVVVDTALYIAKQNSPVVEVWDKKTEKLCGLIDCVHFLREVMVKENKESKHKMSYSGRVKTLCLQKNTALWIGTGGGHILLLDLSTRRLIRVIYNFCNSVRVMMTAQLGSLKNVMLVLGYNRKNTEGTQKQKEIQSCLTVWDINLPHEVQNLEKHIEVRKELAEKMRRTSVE

In series [1], `CNc1nc(Nc2cnn(C3CCN(C4COC4)CC3)c2C)ncc1C(F)(F)F` came in with a clearance of 22 mL/min/kg. In [2], this compound gave a half-life of 2.1 h. Moreover, on MDR1 (P-gp, ABCB1), the efflux ratio at 5 µM is 5.1. In series [3], this compound registered a Vd of 1.7 L/kg. Moreover, the “inhibition (INH)” value in series [4] and in series [5] was “Not Active” in each case. Moreover, in the series filed under Homo sapiens, the Ratio Ki is above 150. The same compound returned an IC50 in series [6] of 20 nM. Also, the CL free with Rattus norvegicus amounted to 45 mL/min/kg. Further, the Kp uu in series [7] is 0.06. Further, the CLhep predicted at 1 µM in series [8] is 3 mL/min/kg; in [10], 9 mL/min/kg. The compound further showed a Ki in series [9] of 4 nM.
Take `CNc1nc(Nc2cn(C(C)(C)C(=O)NCC(F)(F)F)nc2C)ncc1C(F)(F)F`: the efflux ratio at 5 µM at MDR1 (P-gp, ABCB1) is 1.5. The Ratio Ki in the series filed under Homo sapiens is above 150. Further, the IC50 in [6] was 53 nM.
In the same order, the values of `CNc1nc(Nc2cn(C(C)(C)C(=O)NC(C)C)nc2C)ncc1C(F)(F)F` are 1.3, above 150 and 140 nM.
In the same order, the values of `CCNC(=O)C(C)(C)n1cc(Nc2ncc(C(F)(F)F)c(NC)n2)c(C)n1` are 4, above 150 and 99 nM.
Consider `CNc1nc(Nc2cnn(C3CCOCC3)c2C)ncc1C(F)(F)F`, for which the clearance in series [1] was 74 mL/min/kg. The efflux ratio at 5 µM at MDR1 (P-gp, ABCB1) was found to be 2.3. In series [11], this compound showed a half-life of 0.17 h. The Ratio Ki in the series listed under Homo sapiens was above 150. The compound further displayed an IC50 in series [6] of 11 nM. This compound showed a CL free with Rattus norvegicus of 232 mL/min/kg. For the same compound, the Kp uu in [7] stood at 0.3. For the same compound, the CLhep predicted at 1 µM was 5 mL/min/kg in [8] and 35 mL/min/kg in [10]. This compound gave a Ki in series [9] of 2 nM. In addition, the Vd in series [12] came to 1.1 L/kg.
On to `CNc1nc(Nc2cnn3c2COCC3)ncc1C(F)(F)F`, for which the efflux ratio at 5 µM at MDR1 (P-gp, ABCB1) was 1. The Ratio Ki in the series filed under Homo sapiens was above 150. Further, the IC50 in [6] worked out at 18 nM. In addition, in series [9], the Ki came out at 3 nM.
In the case of `CNC(=O)C(C)(C)n1cc(Nc2ncc(C(F)(F)F)c(NC)n2)c(C)n1`, the clearance in series [1] is 12 mL/min/kg. Moreover, on MDR1 (P-gp, ABCB1), the efflux ratio at 5 µM was determined as 5.5. Moreover, in the series filed under Homo sapiens, the Ratio Ki was above 150. In series [6], this compound yielded an IC50 of 36 nM. This compound also displayed a CL free with Rattus norvegicus of 27 mL/min/kg.
In the case of `CCNc1nc(Nc2cc(F)c(C(=O)N3CCOCC3)cc2OC)ncc1C(F)(F)F`, the Ratio Ki in the series filed under Homo sapiens is above 150. Besides, in [13], the solubility thermodynamic was below 2 µg/mL.
Take `CNc1nc(Nc2cnn3c2C(C)O[C@@H](C)C3)ncc1C(F)(F)F` (stereo not given in full): on MDR1 (P-gp, ABCB1), the efflux ratio at 5 µM was 1. The Ratio Ki in the series filed under Homo sapiens is above 150. For the same compound, half-maximal inhibition in series [6] (IC50) required 49 nM. The CLhep predicted at 1 µM in series [8] was 8 mL/min/kg. In addition, the Ki in series [9] is 6 nM.
Compound `CCNc1nc(Nc2cc(C(C)(C)C#N)nn2C)ncc1C(F)(F)F` yielded a clearance in series [1] of 27 mL/min/kg. The efflux ratio at 5 µM at MDR1 (P-gp, ABCB1) was found to be 1.5. Further, in the series filed under Homo sapiens, the Ratio Ki was above 150. In addition, in the series with Rattus norvegicus, the CL free was 201 mL/min/kg. The Kp uu in series [7] stood at 0.5. Further, the CLhep predicted at 1 µM in [8] is 5 mL/min/kg; in series [10] it was 18 mL/min/kg.
Turning to `CNc1nc(Nc2cnn3c2COC(C)(C)C3)ncc1C(F)(F)F`, the efflux ratio at 5 µM on MDR1 (P-gp, ABCB1) is 0.7. Besides, the Ratio Ki in the series listed under Homo sapiens is above 150. This compound had an IC50 in series [6] of 20 nM. The CLhep predicted at 1 µM in series [8] was 12 mL/min/kg. The same compound registered a Ki in series [9] of 0.9 nM.
`CNc1nc(Nc2cnn3c2C(C)OCC3)ncc1C(F)(F)F` (stereo not given) yielded a clearance in series [1] of 43 mL/min/kg. Moreover, on MDR1 (P-gp, ABCB1), the efflux ratio at 5 µM was 1.3. Moreover, in the series filed under Homo sapiens, the Ratio Ki is above 150. The compound further showed an IC50 in series [6] of 42 nM. In the series on Rattus norvegicus, this compound yielded a CL free of 105 mL/min/kg. The CLhep predicted at 1 µM in [8] is 3 mL/min/kg; in series [10], 19 mL/min/kg. Moreover, the affinity in [9], expressed as Ki, was 3 nM.
In the case of `CNc1nc(Nc2cn(C3(C#N)CC3)nc2C)ncc1C(F)(F)F`, in series [1], the clearance was determined as 55 mL/min/kg. The efflux ratio at 5 µM on MDR1 (P-gp, ABCB1) was found to be 1.4. Also, the Ratio Ki in the series listed under Homo sapiens is above 150. In addition, in series [6], it took 30 nM to reach half-maximal inhibition (IC50). For the same compound, in the series with Rattus norvegicus, the CL free was found to be 213 mL/min/kg. Further, the Kp uu in series [7] is 0.4. In addition, the figures for the CLhep predicted at 1 µM in series [8] and in series [10] were 5 mL/min/kg and 14 mL/min/kg, respectively. Further, the affinity in series [9], expressed as Ki, was 3 nM.
As to `CNc1nc(Nc2cnn(C3(C#N)CC3)c2Cl)ncc1C(F)(F)F`, the clearance in series [1] was 22 mL/min/kg. For the same compound, the efflux ratio at 5 µM at MDR1 (P-gp, ABCB1) came out at 1.3. In the series filed under Homo sapiens, the Ratio Ki was above 150. The compound also had an IC50 in series [6] of 22 nM. This compound also gave a CL free in the series on Rattus norvegicus of 431 mL/min/kg. For the same compound, the Kp uu in series [7] was 0.6. Moreover, the CLhep predicted at 1 µM in [8] was 9 mL/min/kg; in series [10] it was 30 mL/min/kg. The Ki in [9] was 2 nM.
In [1], `CNc1nc(Nc2cnn(C(C)(C)C#N)c2C)ncc1C(F)(F)F` showed a clearance of 65 mL/min/kg. Further, the efflux ratio at 5 µM on MDR1 (P-gp, ABCB1) was determined as 1. Further, in the series listed under Homo sapiens, the Ratio Ki was above 150. The compound also registered an IC50 in [6] of 5 nM. Besides, the CL free in the series on Rattus norvegicus worked out at 423 mL/min/kg. Further, in series [7], the Kp uu is 0.4. The CLhep predicted at 1 µM in [8] is 4 mL/min/kg; in [10], 33 mL/min/kg. The same compound gave a Ki in series [9] of 1 nM.
Regarding `CNc1nc(Nc2cn([C@H]3CCN(C4COC4)C[C@H]3F)nc2C)ncc1C(F)(F)F` (relative stereo), the clearance in [1] stood at 16 mL/min/kg. The efflux ratio at 5 µM at MDR1 (P-gp, ABCB1) worked out at 2.2. The efflux ratio at BCRP (ABCG2) was found to be 4.2. Moreover, in the series listed under Homo sapiens, the Ratio Ki is above 150. Moreover, the IC50 in series [6] was 14 nM. In the series on Rattus norvegicus, this compound came in with a CL free of 42 mL/min/kg. Further, in series [7], the Kp uu came to 0.08. Also, in [8], the CLhep predicted at 1 µM is 1 mL/min/kg. In series [9], this compound had a Ki of 2 nM.

By half-life is commonly meant the time in which the quantity being followed falls by half. A word on the efflux ratio: it is a quotient of directional permeabilities that is used to spot active efflux. By IC50 is commonly meant the midpoint of a concentration-inhibition curve. Low values mean inhibition by little substance, high ones a need for much substance. The term Ki denotes a dissociation constant, usually derived from enzyme kinetics or from competition with a known ligand. The low end stands for higher affinity, the high end for lower affinity.
